One series concerns HEP G2. Briefly: IC50 with HEP G cells (toxicity). It counts as cell-based, human. The note with it: not toxic.
The next series has as its target T1, bovine cytochrome bc (Bos taurus, UniProt P00157).
T1 construct: Whole bovine heart was collected directly from slaughter and transported on ice to the cold room; from tissue; host or cells: bovine heart mitochondria, DDM-solubilised, column-purified
Briefly: Binding assays with bovine cytochrome bc1.

The subject of series [1] is P. berghei sporozoites, blood and liver stages. Briefly: P. berghei sporozoite causal prophylaxis model in mice. It counts as in vivo, Plasmodium berghei. Here is the method:
P. berghei sporozoites. The methods that follow are taken directly from^24,25: From laboratory-reared female Anopheles stephensi, isolation, inoculation and viability check Plasmodium berghei sporozoites (luciferase expressing) were obtained and maintained at 18° C. for 17 to 22 days after feeding on malaria-infected Swiss CD-1/ICR mice. From malaria-infected mosquitoes, salivary glands were extracted and sporozoites obtained. Briefly, mosquitoes were separated into head/thorax and abdomen. Thoraxes and heads were triturated with a mortar and pestle and suspended in medium RPMI 1640 containing 1% C57BL/6 mouse serum (Rockland Co, Gilbertsville, Pa., USA). 50-80 heads with glands total were placed into a 0.5 ml Osaki tube on top of glass wool with enough dissection media to cover the heads. Until all mosquitoes had been dissected, the Osaki tube was kept on ice. Sporozoites that were isolated from the same batch of mosquitoes were inoculated into C57BL/6, 2D knock-out and 2D knock-out/2D6 knock-in C57BL/6 mice on the same day to control for biological variability in sporozoite preparations. On day 0, each mouse was inoculated intravenously in the tail vein with approximately 10,000 sporozoites suspended in 0.1 ml volume. They were stained with a vital dye containing fluorescein diacetate (50 mg/ml in acetone) and ethidium bromide (20 μg/ml in phosphate buffered saline; Sigma Chemical Co, St. Louis, Mo., USA) and counted in a haemocytometer to ensure that inoculated sporozoites were viable following the isolation procedure. Viability of the sporozoites ranged from 90 to 100%.
At the time of preparation of the suspension solution, compounds tested in these experiments were dosed based on the body weight. The suspension solution of oral agents, using homogenizer (PRO Scientific Inc, Monroe, Conn., USA) with 10 mm open-slotted generator to homogenize drug powder mixture at 20,000-22,000 rpm for 5 min in ice bath, were prepared in 0.5% (w/v) hydroxyethyl cellulose and 0.2% (0.5% HECT, v/v) Tween-80 in distilled water. […]
All of the in vivo imaging system (IVIS) methods utilized have been described previously. […] Additionally, using a flow cytometry system (FC500 MPL, Beckman Coulter, Miami, Fla., USA), blood-stage infections were measured. […] D-Luciferin potassium salt, (Xenogen, California and Goldbio, St Louis, Mo., USA), the luciferase substrate, was inoculated intraperitoneally into mice at a concentration of 200 mg/kg 15 min before luminescence analysis. […] Using Living Image® 3.0 software, photons emitted from specific regions were quantified.
Parasitemia was measured after days of IVIS imaging. During a total of 30 days, mice were observed and parasitemia level determined using FACs analysis. […]

In another series the test system is CYP. Briefly: CYP profile. Type of series: in vitro ADME.
The test system of a further series is P. falciparum Dd2. Description: SYBR Green drug sensitivity of Dd2 and cytochrome b / scDHODH lines. Type of series: cell-based, Plasmodium falciparum. Here is the method:
We used the following parasite line from the MR4 repository of the American Type Culture Collection (ATCC): Dd2 (MRA-156). Mutant Dd2 parasites harboring a G33A or G33V substitution in cytochrome b were as reported. Dd2 parasites with a G131 S mutation in cytochrome b and transgenic lines expressing a chromosomally integrated copy of the S. cerevisiae DHODH were utilized as previously described. Parasites were cultured by standard methods in RPMI media supplemented with 5% human O^+ serum and 0.25% AlbuMAX® II (Life Technologies 11021-045).
Drug susceptibility was measured using the SYBR Green method. Twelve point curves based on 2-fold dilutions of the test compound were carried out in triplicate each day and replicated on at least three different days. EC50 values were calculated using a nonlinear regression curve fit in Prism 6.0 for Mac (GraphPad Software, Inc.).

Another series concerns Dd2 parasites. Briefly: Isobologram drug combination assay (fixed ratio, FIC). It counts as cell-based, Plasmodium falciparum. The note with it: Dd2, fixed ratios. Here is the method:
Isobologram experiments were performed in similar fashion utilizing the modified fixed ratio methodology. Briefly, MJM170 and either atovaquone or cycloguanil or BRD6323 were mixed at multiple fixed volumetric ratios (10:0, 8:2, 6:4, 4:6, 2:8, and 0:10) and then serially diluted in 12-point 2-fold dilutions and dispensed in triplicate to 384-well assay plates and replicated on three different days. EC50 values were calculated as above, and FICs were calculated for each drug combination as described^S76. Synergy was defined as an FIC <1.0, additivity as FIC=1.0, and antagonism as FIC >1.0.

Where [2] appears, read: P. berghei, 0.625 mg/kg x3 or 2.5 mg/kg single oral dose.

“Also recorded” adds a separate entry of the source.

Consider `Cc1[nH]c2c(c(=O)c1-c1ccc(Oc3ccc(OC(F)(F)F)cc3)cc1)CCCC2` [JAG21, 2-methyl-3-(4-(4-(trifluoromethoxy)phenoxy)phenyl)-5,6,7,8-tetrahydroquinolin-4(1H)-one], for which, in the series with HEP G2, the “toxicity to human HepG cells” value was more than 17 µM. Besides, at bovine cytochrome bc, the “inhibition of bovine Cytbc1” value is reported as “but not fully”. Besides, the “binding affinity to bovine cytochrome bc” value on bovine cytochrome bc (in comparison with previous compounds) is on record as “lower binding affinity”. Moreover, the “P. berghei cure, 3 oral doses” value in series [1] (3 oral doses (days -1, 0, +1), 0.625 mg/kg) was “protect and cure”. Also, in series [1] (setting [2]), the parasitemia result was “no parasitemia” and the “survival at 30 days” value came out at 100%. Moreover, the “P. berghei cure, single oral dose” value in series [1] (single dose 2.5 mg/kg, oral, 2.5 mg/kg) is “cures and cure”. Besides, in the series on CYP, the “CYP profile” value is on record as “clean”.

The EC50 is the concentration at which the effect is half-maximal. A higher EC50 goes with lower potency in that assay. As to `Cc1[nH]c2c(c(=O)c1-c1ccc(Oc3ccccc3)cc1)CCCC2` [MJM170], in the series with P. falciparum Dd2 (Dd2 G33A and Dd2 G33V), the “cross-resistance in cytochrome b drug-resistant mutant lines” value is listed as “without cross-resistance”. For the same compound, the concentration for a half-maximal effect (EC50) with P. falciparum Dd2 (Plasmodium falciparum, DD2) turned out to be 29.5 nM. For the same compound, the “inhibition of parasite supplemented with yeast cytosolic DHODH” value in the series with P. falciparum Dd2 (scDHODH line) was “cannot inhibit”. In the series on Dd2 parasites, the “combination effect with BRD6323” value is on record as “Antagonism”, the “combination effect with atovaquone” value was “modest synergy; also recorded: modestly synergistic; also recorded: Slight synergy” and the “combination effect with cycloguanil” value is “additive effect”.

Source of the values: patent US11414385B2, “Compounds and methods for treating, detecting, and identifying compounds to treat apicomplexan parasitic diseases” (The University of Chicago, priority 2015, dated 2022).
